Patent US20240190821A1, “SULFONAMIDE SUBSTITUTED N-(1H-INDOL-7-YL)BENZENESULFONAMIDES AND USES THEREOF” (Triana Biomedicines, Inc., priority 2021, published 2024)
Read-outs that look alike come from different tables or passages of the source.

Columns and labels:
[1] = biological target: T1, DCAF15-RBM39 ternary complex (Homo sapiens, UniProt Q14498+Q66K64); assay: Compound-induced DCAF15-RBM39 ternary complex formation, AlphaLISA; type: biochemical; details: AlphaLISA, His-tagged DCAF15 complex and biotin-carrying RBM39; read-out: Ternary-RBM39 (RRM2) EC50
T1 construct: (RRM2)
T1 sequence (Q66K64 whole entry): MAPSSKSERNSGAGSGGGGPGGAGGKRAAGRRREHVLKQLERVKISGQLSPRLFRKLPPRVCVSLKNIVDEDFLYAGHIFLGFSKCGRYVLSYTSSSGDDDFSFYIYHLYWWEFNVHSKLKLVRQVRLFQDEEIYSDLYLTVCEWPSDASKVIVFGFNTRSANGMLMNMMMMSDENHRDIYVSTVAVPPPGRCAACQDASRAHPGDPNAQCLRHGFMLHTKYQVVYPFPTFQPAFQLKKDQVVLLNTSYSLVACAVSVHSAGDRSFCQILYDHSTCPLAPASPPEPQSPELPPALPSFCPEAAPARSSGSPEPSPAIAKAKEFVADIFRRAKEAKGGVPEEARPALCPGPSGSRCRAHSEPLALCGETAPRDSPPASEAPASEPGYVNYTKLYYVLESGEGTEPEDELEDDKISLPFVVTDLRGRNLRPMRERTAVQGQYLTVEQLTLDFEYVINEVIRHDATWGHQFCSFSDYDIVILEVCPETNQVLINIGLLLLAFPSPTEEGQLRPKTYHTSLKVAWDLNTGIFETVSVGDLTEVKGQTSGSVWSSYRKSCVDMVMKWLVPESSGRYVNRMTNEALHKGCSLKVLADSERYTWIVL
T1 sequence (Q14498 250-328 limits assumed): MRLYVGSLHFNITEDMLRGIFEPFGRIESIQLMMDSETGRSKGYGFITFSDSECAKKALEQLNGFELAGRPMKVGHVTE
T1 sequence (Q16531 whole entry partner): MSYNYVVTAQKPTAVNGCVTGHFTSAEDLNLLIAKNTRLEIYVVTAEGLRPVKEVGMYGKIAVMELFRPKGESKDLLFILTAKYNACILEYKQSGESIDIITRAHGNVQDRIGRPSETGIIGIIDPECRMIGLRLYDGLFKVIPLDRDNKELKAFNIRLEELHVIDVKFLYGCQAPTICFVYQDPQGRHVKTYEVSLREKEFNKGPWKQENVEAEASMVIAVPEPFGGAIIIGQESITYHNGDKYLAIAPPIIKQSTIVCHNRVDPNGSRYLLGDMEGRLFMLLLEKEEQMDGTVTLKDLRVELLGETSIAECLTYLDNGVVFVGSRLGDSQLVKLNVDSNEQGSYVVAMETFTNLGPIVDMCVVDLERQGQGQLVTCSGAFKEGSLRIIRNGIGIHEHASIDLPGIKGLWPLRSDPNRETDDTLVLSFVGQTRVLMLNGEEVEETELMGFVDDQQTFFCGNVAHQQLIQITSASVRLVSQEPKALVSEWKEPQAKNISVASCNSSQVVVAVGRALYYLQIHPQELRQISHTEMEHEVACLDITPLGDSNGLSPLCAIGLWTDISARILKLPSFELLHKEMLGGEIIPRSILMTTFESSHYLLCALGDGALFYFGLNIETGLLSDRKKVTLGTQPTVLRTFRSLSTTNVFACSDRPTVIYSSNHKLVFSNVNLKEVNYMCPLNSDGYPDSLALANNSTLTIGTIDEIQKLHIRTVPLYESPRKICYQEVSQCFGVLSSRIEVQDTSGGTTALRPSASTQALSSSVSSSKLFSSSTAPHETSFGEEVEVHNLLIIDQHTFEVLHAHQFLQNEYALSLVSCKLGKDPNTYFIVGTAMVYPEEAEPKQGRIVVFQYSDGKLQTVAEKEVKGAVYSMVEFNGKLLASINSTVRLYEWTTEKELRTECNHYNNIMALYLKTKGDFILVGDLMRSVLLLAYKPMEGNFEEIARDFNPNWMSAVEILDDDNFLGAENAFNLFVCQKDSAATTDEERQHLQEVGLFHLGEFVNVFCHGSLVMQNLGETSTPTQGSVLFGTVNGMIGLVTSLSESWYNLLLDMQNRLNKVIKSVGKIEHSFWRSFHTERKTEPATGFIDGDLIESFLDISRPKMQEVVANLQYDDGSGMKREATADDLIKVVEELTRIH
In short: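 Protein mixture incubated with compounds for one hour at room temperature; AlphaLISA beads then added sequentially, 1-2 h at room temperature after each. No-compound wells served as negative controls; His-tagged biotinylated GST tracked assay performance.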

RBM39 = biological target: T2, RBM39 (Homo sapiens, UniProt Q14498+Q66K64); assay: Western blot assay for degradation of RBM39 in HCT116 cells; type: cell-based; details: HCT116, 4 h
T2 construct: endogenous in cells; host or cells: HCT116
Method: Example 107: Western Blot Assay Procedure for Assessing Degradation of RBM39 in HCT116 Cells
HCT116 cells were used with passage numbers ranging from 13 to 25. Cells were seeded in 12-well plated at a density of 1 million cells per well in 1 mL cell culture medium containing McCoy's 5A medium (Cat. #16600082, ThermoFisher, Waltham, MA), 10% Fetal Bovine Serum (Cat. #26140, ThermoFisher, Waltham, MA) and 1% Pen-Strep (Cat. #. 15070063, ThermoFisher, Waltham, MA) and incubated overnight. The next morning, compounds were serially diluted (1:3, 9 points) in the medium separately and were prepared 2× the final assay concentration. Subsequently, 1.0 mL medium containing DMSO or the appropriate concentration of each compound was added to respective wells. The final DMSO concentration in each well was 0.1%. […] Cells were then washed once with 1 mL of ice cold Dulbecco's phosphate-buffered saline (Cat. #28374, ThermoFisher, Waltham, MA) and then lysed with 100 μl of lysis buffer containing 1× RIPA (Cat. #. 89900, ThermoFisher, Waltham, MA) and HALT protease and phosphatase inhibitor (Cat. #78442, ThermoFisher, Waltham, MA) on ice for 10 minutes with intermittent rocking. Lysates were then sonicated in a sonication bath (3 pulses of 10 sec each with 1 min incubation on ice between each pulse). Samples were then centrifuged for 20 min at 14,000 rpm for 20 min. Supernatants were then transferred to fresh microfuge tubes and stored frozen at −80° C. until use. Total protein quantitation in lysate samples was done using the BCA protein quantitation kit following the manufacturer's instructions. For polyacrylamide gel electrophoresis, each sample ([…] total protein), was diluted with Laemmli sample buffer (Cat. #. 1610747, BioRad, Hercules, CA) by adding 9 ul of lysate to 3 ul of sample buffer containing 10% β-mercaptoethanol. Samples were then denatured at 95° C. for 5 minutes in a heat block, centrifuged at 14,000 rpm for 5 min, and placed on ice. Subsequently, 12 ul of each sample was loaded on 4-20% Tris/Glycine gels and electrophoresed in 1×Tris/Glycine SDS buffer at 80 (constant) volts for 2 h. Resolved samples were then transferred from gels to PVDF membrane using the BioRad Turbo-transfer unit with the Turbo default program (Cat. #. 1704150EDU, BioRad, Hercules, CA). For immunoblotting, membranes were first blocked for 1 hour at room temperature using Odyssey Blocking Buffer (Cat. #: 927-60001, Li-cor, Lincoln, NE) with continuous rocking. Membrane was then incubated with primary antibodies, anti-RBM39 (Sigma Cat. #: HPA001591, St. Louis, MO) and anti-β-actin (Cell Signaling Cat. #3700S, Danvers, MA), diluted 1000 fold each, at 4° C. for overnight. Subsequently, membrane was washed three times for at room temperature with continuous rocking (5 minutes each wash) using TBS buffer containing 0.1% Tween-20. After the final wash, secondary antibodies, IRDye 680 RD Goat anti Mouse IgG H+L (Cat. #: 926-68070, Li-cor, Lincoln, NE), and IRDye 800CW Goat anti Rabbit IgG H+L (Cat. #: 926-32211, Li-cor, Lincoln, NE), each diluted 10,000-fold, were added to the membranes and incubated at room temperature for 1 h with continuous rocking. Membranes were then washed 3 times with 1×TBS and scanned using Odessey CLx imaging system (Li-cor, Lincoln, NE) using default settings. Band intensity in images was quantified using the Image Studio Lite software (Version 5.2). Signal intensity for RBM-39 specific bands were normalized using the signal intensity for β-actin-specific band, and percent degradation was assessed by comparing RBM39 signal in compound-treated vs. DMSO-treated samples.

HCT116 cells = assay: HCT116 cell viability using CellTiter-Glo; type: cell-based; details: read-out: 3-Day CTG IC50 in HCT116
Method: Example 108: Measurement of HCT116 Cell Viability Using CellTiter-Glo
HCT116 cells with the passage number ranging from 13 to 25 were plated in an opaque-walled 384 well plate (Corning, Cat. #3765, Corning, NY) at a density of 1000 cells/well in 50 μl medium containing McCoy's 5A medium (Cat. #16600082, ThermoFisher, Waltham, MA), 10% Fetal Bovine Serum (Cat. #26140, ThermoFisher, Waltham, MA) and 1% Pen-Strep (Cat. #. 15070063, ThermoFisher, Waltham, MA). After overnight incubation, cells were treated with various concentrations of compounds (0-10 μM) in DMSO (final concentration of 0.2% DMSO) for 72 h. CellTiter-Glo® Reagent (Cat. #G7573, Promega, Waltham, MA) was then added to all wells. The plates were placed on an orbital shaker to mix the content and induce cell lysis. The plates were then incubated at room temperature for 10 minutes to stabilize luminescent signal. The luminescence was recorded using Envision multilabel plate reader (Perkin-Elmers, Waltham, MA) and the data was fit by using Excel-fit (Microsoft, Redmond, WA).

DCAF15 = DCAF15 (Homo sapiens, UniProt Q66K64); assay: Binary interaction between compounds and DCAF15, HTRF competition assay; type: binding; details: HTRF competition with Alexa Fluor 647 tracer, His-tagged DCAF15 complex; read-out: DCAF15 IC50
Sequence of DCAF15 (Q66K64 whole entry): as the sequence (Q66K64 whole entry) above
Sequence of DCAF15 (Q16531 whole entry partner): as the sequence (Q16531 whole entry partner) above
In short: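 HTRF competition format: DCAF15 premixed 15 min at room temperature with anti-6His-Eu cryptate antibody, then combined with tracer and compound. Binding derived from ratiometric signal with titration curves; no-DCAF15 wells as controls.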

[2] = Homo sapiens, HCT-116, HCT116, 72 h

SMILES | EC50 [1] | DC50 (RBM39) | IC50 (HCT116 cells; HCT116, 72 h) | IC50 (DCAF15) | IC50 (HCT116 cells; [2])
Nc1ccc(S(=O)(=O)Nc2cnc3c(Cl)cccc3n2)cc1 [CQS, cloroquinoxaline sulfonamide, reference compound] | < 5 µM | < 0.1 µM | < 5 µM |  | 
N#Cc1cccc(S(=O)(=O)Nc2ccc(Cl)c3c(Cl)c[nH]c23)c1 [Compound 74, 3-cyano-N-(3,4-dichloro-1H-indol-7-yl)benzenesulfonamide] | < 1 µM | < 0.1 µM |  |  | 
Cc1ccc(NS(=O)(=O)c2ccc(-n3ccnn3)cc2)c2[nH]cc(C#N)c12 [Compound 95, N-(3-cyano-4-methyl-1H-indol-7-yl)-4-(1H-1,2,3-triazol-1-yl)benzenesulfonamide] | < 1 µM | < 0.1 µM |  |  | 
Cc1ccc(NS(=O)(=O)c2cccc(-n3ccnn3)c2)c2[nH]cc(C#N)c12 [Compound 96, N-(3-cyano-4-methyl-1H-indol-7-yl)-3-(1H-1,2,3-triazol-1-yl)benzenesulfonamide] | < 1 µM | < 0.1 µM |  | < 20 µM | 

Now from value to molecule:

EC50 [1] | DC50 (RBM39) | IC50 (HCT116 cells; HCT116, 72 h) | IC50 (DCAF15) | IC50 (HCT116 cells; [2]) | SMILES
< 1 µM | < 1 µM |  | < 100 µM | < 1 µM | COC(=O)CNS(=O)(=O)c1ccc(S(=O)(=O)Nc2ccc(Cl)c3c(Cl)c[nH]c23)cc1 [Compound 1, methyl ((4-(N-(3,4-dichloro-1H-indol-7-yl)sulfamoyl)phenyl)sulfonyl) glycinate]
< 1 µM | < 1 µM |  |  |  | NCCCCCCCNS(=O)(=O)c1ccc(S(=O)(=O)Nc2ccc(Cl)c3c(Cl)c[nH]c23)cc1 [Compound 8, N^1-(7-aminoheptyl)-N^4-(3,4-dichloro-1H-indol-7-yl)benzene-1,4-disulfonamide]
< 1 µM | < 1 µM |  |  | < 0.1 µM | O=S(=O)(Nc1ccc(Cl)c2c(Cl)c[nH]c12)c1ccc(S(=O)(=O)N2CCNCC2)cc1 [Compound 42, N-(3,4-dichloro-1H-indol-7-yl)-4-(piperazin-1-ylsulfonyl)benzenesulfonamide]
